Test results: US9107936B2, “Antagonists of GRASP55 for use as a medicament” (Institut National de la Sante et de la Recherche Medicale …, priority 2012, dated 2015)

Experiments:
Format in all cases: binding, murine
[1] = target: T1, GST-PDZI′ (Grasp55 residues 1 to 107) (Mus musculus, UniProt Q99JX3); experiment: HTRF measurement of interaction of biotinylated C-terminal peptides with GST-PDZI′; conditions: biotinylated JAM-C peptide, GST-PDZI′
T1 construct: GST fusion proteins encompassing residues 1 to 107; made in house; host or cells: bacteria Rosetta
Description: (§1) To refine and extend the results obtained by yeast two hybrid, an Homogenous Time Resolved Fluorescence (HTRF) assay have been set-up to measure interactions of various peptides with recombinant GST proteins corresponding to different regions of Grasp55.
(§2) Briefly, the technique consisted in incubating 18 h at 4° C. the biotinylated-Cterminal peptides (SEQ ID NO: 26 to 34) at the concentration of 1.9*10^−7M with the GST-fusion protein, the terbium-coupled anti-GST antibody (8*10^−10M each) and the d2-coupled streptavidin (4*10^−8M) (both from Cisbio), in 0.1 mL of Hepes 0.05M, NaCl 0.15M BSA 0.1% pH 7.2. In some experiments, competing peptide or chemicals were added to the incubation mix at the indicated concentration. After incubation, microtiter plates (Costar #3693) were red using PolarScan Omega (BMG Labtech) equipped for HTRF measurements. Upon excitation at 320 nm, a 620 nm fluorescence emission is produced by the donor terbium that in turn excites a 665 nm light emission by a Streptavidin-d2 (acceptor) bound to the Biotinylated interacting Peptide if the latter is interacting with the donor. The […] R ratio is obtained and a Delta F is computed as: [(Rsample−RNSB)/RNSB]*100 where RNSB is the Non Specific Background signal determined in incubates where the GST-fusion protein was omitted.
(§3) Having shown that HTRF measurement of interaction is a reliable technology to identify inhibitors of interaction. A screen of a chemical compound library provided by MRCt has been initiated. The screening consisted in the same HTRF technique used in Example 7 except that compounds from the library were added in the incubation mix at the final concentration of 6.6×10^−5M. […] Since such a result could be either due to a specific inhibition of the JAM-C peptide interaction to the recombinant Grasp55 PDZ domains or to a non-specific inhibition of the FRET signal between donor and acceptor in HTRF technology, the twenty selected compounds have been further tested. Indeed, compounds could potentially interfere with the binding of the anti-GST antibody terbium-labeled to the GST of the fusion protein, the binding of Streptavidin-d2 to the biotinylated peptide or promote strong interference at 320, […] or 665 nm. Thus, the putative hits obtained were screened for non-specific inhibition. To this end, the GST-PDZI′+II′ recombinant protein was biotinylated using Sulfo-NHS Biotin according to manufacturer instructions (Pierce). This allows designing an HTRF assay in which the d2-coupled streptavidin (acceptor) and the terbium-coupled anti-GST antibody are directly bound to recombinant GST-PDZI′+II′ protein and produce DeltaF signal independently of the biotinylated peptide. The twenty selected compounds were thus tested in this assay to eliminate those giving false inhibition of the HTRF signals while inhibitors of Biotinylated peptide interaction with GST-PDZI′+II′ should not interfere in this assay.

[2] = target: T2, GST-PDZI′+II′ (Grasp55 residues 1 to 208) (Mus musculus, UniProt Q99JX3); experiment: HTRF measurement of interaction of biotinylated C-terminal peptides with GST-PDZI′+II′; conditions: biotinylated JAM-C peptide, GST-PDZI′+II′
T2 construct: and 1 to 208 corresponding respectively to the PDZI′, PDZII′ and PDZI′+II′ constructs; made in house; host or cells: bacteria Rosetta
Description: as §1, §2, §3

[3] = target: T3, GST-GraspFL (GST-Grasp55 full length) (Mus musculus, UniProt Q99JX3); experiment: HTRF competition with GST-Grasp55 full length; conditions: biotinylated JAM-C peptide
T3 construct: GST-GraspFL (GST-Grasp55 full length); made in house; host or cells: bacteria Rosetta
Description: as §1
as §2, with “omitted. […]” for “omitted.”

NYIRTSEEGDFRHKSSFVI [unlabelled peptide]
increase in EC50 with GST-PDZI′ versus GST-PDZI′+II′ and GST-GraspFL [1]: twenty fold increase in EC50 | EC50 of competition of the HTRF signal [2]: low micromolar range | EC50 of competition of the HTRF signal [3]: low micromolar range
